Experimental data: US20110178053A1, “AZACARBOLINE DERIVATIVES, PREPARATION METHOD THEREOF AND THERAPEUTIC USE OF SAME” (SANOFI-AVENTIS, priority 2008, published 2011)

How the values were obtained:
MOLM-13 = test: Cell viability assay (CellTiter-Blue), MOLM-13; assay type: cell-based; details: Homo sapiens; MOLM-13 cells; cell proliferation/viability; read-out: IC50 MOLM-13 μM (myeloma)
Text: (§1) The representative compounds of the invention are also screened as regards their effects on cell proliferation and viability using a variety of human tumour cell lines, which are representative of various pathological indications. These cell lines include: • Models of haematological cancers: • TF-1 (acute myelogenic leukaemia; AML M6 at the time of diagnosis); • KG-1 (AML; erythroleukaemia evolving into AML); • KG-1a (AML; sub-clone derived from immature KG-1); • EOL-1 (AML; eosinophilic leukaemia); • PL-21 (AML; M3); • ML-2 (AML; T-NHL evolving into T-ALL evolving into AML M4); • HL-60 (AML, M3); • Kasumi-1 (AML); • GDM-1 (AML); • K-562 (CML—chronic myelogenic leukaemia; blastic crisis); • JURL-MK1 (CML; blastic crisis); • DND-41 (T-ALL—-cell acute lymphoblastic leukaemia); • Jurkat (T-ALL); NALM-6 (B-ALL—B-cell ALL); • CEM (ALL; lymphosarcoma evolving into ALL); • Jeko-1 (B-NHL—B-cell non-Hodgkin lymphoma; mantle-cell lymphoma derived from a variant with large cells as a leukaemic transformation); • WSU-DLCL2 (B-NHL; large B-cell diffuse lymphoma); • RL (B-NHL; undifferentiated diffuse); • OCI-Ly10 (B-NHL); • DoHH-2 (B-NHL); • RPMI-8226 (MM—multiple myeloma); • JVM-2 (B-CLL—B-cell chronic lymphocytic leukaemia); and • JVM-3 (B-CLL) • MV4-11 (AML) • MOLM13 (AML). • Solid tumour models: • HCT-116 (bowel cancer); • HT-29 (bowel cancer); • HC-15 (bowel cancer); • H460 (lung cancer; non-small-cell lung cancer); • A375 (melanoma); • B16F10 (melanoma); • MDA-A1 (breast cancer); • MDA-MB231 (breast cancer); • MDA-MB231 adr (breast cancer); • PANC-1 (pancreatic cancer); and • PC-3 (prostate cancer).
(§2) In order to measure the viability, the tumour cells are incubated in a 96-well or 384-well format for 48, 72 or 96 hours, preferably 72 hours, with a compound of the invention at dilutions of a factor 3 with, in general, nine doses in total, the highest dose being equal to 10 μM or 30 μM. The cell viability is evaluated by adding CellTiter-Blue® (Promega, Madison, Wis., United States) for 4 hours and end-point readings are taken using a SpectraMax Genmini EM (Molecular Devices, Sunnyvale, Calif., United States). The CellTiter-Blue® cell viability assay measures the ability of the cells in culture to reduce resazurin to resorufin, the fluorescence signal intensity being directly proportional to the number of live cells.

Pim-3 = target: T1, Pim-3 (Homo sapiens, UniProt Q86V86); test: TR-FRET assay, Pim-3 kinase (phosphorylation of Bad Ser112); assay type: biochemical; details: TR-FRET; ATP 40 μM; read-out: IC50 Pim3
T1 construct: His6-labelled recombinant full-length human Pim-1, Pim-2 or Pim-3 protein; His6; made in house
Summary of the method: (§3)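 For each of Pim-1, Pim-2 and Pim-3 (His6-tagged full-length human), compounds were titrated over 10 concentrations in duplicate, typically from 30 μM, with ATP at 40 μM, equal to apparent KM. Bad Ser112 phosphorylation was read as the 665/615 nm TR-FRET ratio and IC50 fitted by 4-parameter logistic model.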

Pim-2 = target: T2, Pim-2 (Homo sapiens, UniProt Q9P1W9); test: TR-FRET assay, Pim-2 kinase (phosphorylation of Bad Ser112); assay type: biochemical; details: TR-FRET; ATP 40 μM; read-out: IC50 Pim2
T2 construct: His6-labelled recombinant full-length human Pim-1, Pim-2 or Pim-3 protein; His6; made in house
Summary of the method: as §3

MV4-11 = test: Cell viability assay (CellTiter-Blue), MV4-11; assay type: cell-based; details: Homo sapiens; MV4-11 cells; cell proliferation/viability; read-out: IC50 MV4-11 μM (myeloma)
Text: as §1, §2

EOL-1 = test: Cell viability assay (CellTiter-Blue), EOL-1; assay type: cell-based; details: Homo sapiens, EOL1, read-out: EC50 EOL-1 μM (lymphoma); EOL-1 cells; cell proliferation/viability
Text: as §1, §2

Pim-1 = target: T3, Pim-1 (Homo sapiens, UniProt P11309); test: TR-FRET assay, Pim-1 kinase (phosphorylation of Bad Ser112); assay type: biochemical; details: TR-FRET; ATP 40 μM; read-out: IC50 Pim1
T3 construct: His6-labelled recombinant full-length human Pim-1, Pim-2 or Pim-3 protein; His6; made in house
Summary of the method: as §3

PLK1 = PLK1 (Homo sapiens, UniProt P53350); test: PLK1 biochemical inhibition
Sequence of PLK1 (P53350 whole entry, species assumed): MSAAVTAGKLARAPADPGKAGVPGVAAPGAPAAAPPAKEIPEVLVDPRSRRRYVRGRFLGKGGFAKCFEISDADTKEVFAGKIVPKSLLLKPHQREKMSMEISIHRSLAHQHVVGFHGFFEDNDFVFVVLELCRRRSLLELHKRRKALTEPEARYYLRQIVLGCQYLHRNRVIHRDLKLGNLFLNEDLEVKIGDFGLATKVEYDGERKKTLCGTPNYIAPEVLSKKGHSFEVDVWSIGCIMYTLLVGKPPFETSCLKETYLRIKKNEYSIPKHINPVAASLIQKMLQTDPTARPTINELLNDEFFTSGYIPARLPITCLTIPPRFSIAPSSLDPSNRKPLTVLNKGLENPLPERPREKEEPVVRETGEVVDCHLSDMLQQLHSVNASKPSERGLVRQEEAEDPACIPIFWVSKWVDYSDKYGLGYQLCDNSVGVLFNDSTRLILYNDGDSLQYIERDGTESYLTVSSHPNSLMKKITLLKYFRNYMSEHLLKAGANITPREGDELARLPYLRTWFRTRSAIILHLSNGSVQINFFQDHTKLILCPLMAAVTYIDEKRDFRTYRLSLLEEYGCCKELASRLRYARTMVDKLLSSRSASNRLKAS

T3 sequence (P11309 whole entry): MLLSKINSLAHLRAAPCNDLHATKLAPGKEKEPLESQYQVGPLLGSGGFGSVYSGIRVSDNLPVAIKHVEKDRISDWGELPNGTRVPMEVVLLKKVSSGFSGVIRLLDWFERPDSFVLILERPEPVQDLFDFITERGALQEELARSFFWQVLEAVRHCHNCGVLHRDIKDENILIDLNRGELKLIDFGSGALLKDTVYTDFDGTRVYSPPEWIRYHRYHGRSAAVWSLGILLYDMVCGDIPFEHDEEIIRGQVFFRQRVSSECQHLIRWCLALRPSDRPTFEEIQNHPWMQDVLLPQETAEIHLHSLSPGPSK
T2 sequence (Q9P1W9 whole entry): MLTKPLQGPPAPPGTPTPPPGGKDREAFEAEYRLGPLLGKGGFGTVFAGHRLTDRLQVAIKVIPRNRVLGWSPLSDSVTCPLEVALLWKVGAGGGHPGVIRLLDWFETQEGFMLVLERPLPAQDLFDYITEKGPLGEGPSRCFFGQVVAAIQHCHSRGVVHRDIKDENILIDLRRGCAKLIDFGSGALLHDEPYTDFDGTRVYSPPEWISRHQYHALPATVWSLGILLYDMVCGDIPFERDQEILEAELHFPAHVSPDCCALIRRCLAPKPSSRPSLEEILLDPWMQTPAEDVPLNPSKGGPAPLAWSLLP

IC50 (MOLM-13) | IC50 (Pim-3) | IC50 (Pim-2) | IC50 (MV4-11) | IC50 (Pim-1) | IC50 (PLK1) | SMILES | EC50 (EOL-1)
100 to 1000 nM | 100 to 1000 nM | 100 to 1000 nM | 1000 to 5000 nM | 1 to 100 nM | – | Fc1cnc2[nH]c3cnc(-c4cccnc4)cc3c2c1N1CCOCC1 [Example 33, 3-fluoro-4-(morpholin-4-yl)-6-(pyrid-3-yl)-9H-pyrrolo[2,3-b:5,4-c′]-dipyridine] | 100 to 1000 nM
– | 1 to 100 nM | 1 to 100 nM | 1 to 100 nM | 1 to 100 nM | 100 to 1000 nM | CN(C)CCCN(c1ccc(-c2c(F)cnc3[nH]c4cnc(-c5cccnc5)cc4c23)cc1)S(C)(=O)=O [Example 49, N-[3-(dimethylamino)propyl]-N-{4-[3-fluoro-6-(pyrid-3-yl)-9H-pyrrolo[2,3-b:5,4-c′]-dipyrid-4-yl]phenyl}methanesulfonamide] | 1 to 100 nM
– | 1 to 100 nM | 1000 to 5000 nM | 1000 to 5000 nM | 1 to 100 nM | 100 to 1000 nM | CCN1CCN(C(C)(C)C#Cc2c(F)cnc3[nH]c4cnc(-c5cccnc5)cc4c23)CC1 [Example 92, 4-[3-(4-ethylpiperazin-1-yl)-3-methylbut-1-yn-1-yl]-3-fluoro-6-(pyrid-3-yl)-9H-pyrrolo-[2,3-b:5,4-c′]dipyridine] | 100 to 1000 nM
– | 100 to 1000 nM | 1000 to 5000 nM | – | 1 to 100 nM | 100 to 1000 nM | Fc1cnc2[nH]c3cnc(-c4cccnc4)cc3c2c1-c1ccc(OCCN2CCOCC2)cc1 [Example 99, 3-fluoro-4-{4-[2-(morpholin-4-yl)ethoxy]phenyl}-6-(pyrid-3-yl)-9H-pyrrolo[2,3-b:5,4-c′]dipyridine] | –
– | 1 to 100 nM | 100 to 1000 nM | – | 1 to 100 nM | 1 to 100 nM | OC(COc1ccc(-c2c(F)cnc3[nH]c4cnc(-c5cccnc5)cc4c23)cc1)CN1CCOCC1 (stereo not shown) [Example 101, 1-{4-[3-fluoro-6-(pyrid-3-yl)-9H-pyrrolo[2,3-b:5,4-c′]dipyrid-4-yl]phenoxy}-3-(morpholin-4-yl)propan-2-ol] | –
– | 100 to 1000 nM | 1000 to 5000 nM | – | 1 to 100 nM | 1000 to 5000 nM | CCCNc1cnc2[nH]c3cnc(-c4cccnc4)cc3c2c1 [Example 110, N-propyl-6-(pyrid-3-yl)-9H-pyrrolo[2,3-b:5,4-c′]dipyrid-3-amine] | –
– | 1 to 100 nM | 100 to 1000 nM | – | 1 to 100 nM | 100 to 1000 nM | CCOc1cnc2[nH]c3cnc(-c4cccnc4)cc3c2c1 [Example 112, 3-ethoxy-6-(pyrid-3-yl)-9H-pyrrolo[2,3-b:5,4-c′]dipyridine] | –
– | 1 to 100 nM | 1000 to 5000 nM | – | 1 to 100 nM | 1000 to 5000 nM | COCCOc1cnc2[nH]c3cnc(-c4cccnc4)cc3c2c1 [Example 113, 3-(2-methoxyethoxy)-6-(pyrid-3-yl)-9H-pyrrolo[2,3-b:5,4-c′]dipyridine] | –
– | 1 to 100 nM | 1000 to 5000 nM | – | 1 to 100 nM | 1000 to 5000 nM | c1cncc(-c2cc3c(cn2)[nH]c2ncc(-c4cnn(CCN5CCOCC5)c4)cc23)c1 [Example 115, 3-{1-[2-(morpholin-4-yl)ethyl]-1H-pyrazol-4-yl}-6-(pyrid-3-yl)-9H-pyrrolo[2,3-b:5,4-c′]dipyridine] | –
– | 1 to 100 nM | > 5000 nM | – | 1 to 100 nM | 1000 to 5000 nM | Cn1ccc(-c2cnc3[nH]c4cnc(-c5cccnc5)cc4c3c2)n1 [Example 116, 3-(1-methyl-1H-pyrazol-3-yl)-6-(pyrid-3-yl)-9H-pyrrolo[2,3-b:5,4-c′]dipyridine] | –
– | 1 to 100 nM | 100 to 1000 nM | – | 1 to 100 nM | 100 to 1000 nM | OCc1cccc(-c2cnc3[nH]c4cnc(-c5cccnc5)cc4c3c2)c1 [Example 118, {3-[6-(pyrid-3-yl)-9H-pyrrolo-[2,3-b:5,4-c′]-dipyrid-3-yl]-phenyl}methanol] | –
– | 1 to 100 nM | 1000 to 5000 nM | – | 1 to 100 nM | 1000 to 5000 nM | c1cncc(-c2cc3c(cn2)[nH]c2ncc(-c4ccc(N5CCOCC5)cc4)cc23)c1 [Example 121, 3-[4-(morpholin-4-yl)phenyl]-6-(pyrid-3-yl)-9H-pyrrolo[2,3-b:5,4-c′]-dipyridine] | –
– | 1 to 100 nM | 100 to 1000 nM | 1 to 100 nM | 1 to 100 nM | 1000 to 5000 nM | CC(C)N1CCN(c2ccc(-c3cnc4[nH]c5cnc(-c6cccnc6)cc5c4c3)cc2)CC1 [Example 122, 3-{4-[4-(propan-2-yl)piperazin-1-yl]phenyl}-6-(pyrid-3-yl)-9H-pyrrolo[2,3-b:5,4-c′]-dipyridine] | 1 to 100 nM
– | 1 to 100 nM | 100 to 1000 nM | – | 1 to 100 nM | 100 to 1000 nM | CN1CCN(CCCn2cc(-c3cnc4[nH]c5cnc(-c6cccnc6)cc5c4c3)cn2)CC1 [Example 124, 3-{1-[3-(4-methyl-piperazin-1-yl)propyl]-1H-pyrazol-4-yl}-6-(pyrid-3-yl)-9H-pyrrolo[2,3-b:5,4-c′]-dipyridine] | –
– | 100 to 1000 nM | > 5000 nM | – | 1 to 100 nM | 1000 to 5000 nM | c1cncc(-c2cc3c(cn2)[nH]c2ncc(-c4cn[nH]c4)cc23)c1 [Example 126, 3-(1H-pyrazol-4-yl)-6-(pyrid-3-yl)-9H-pyrrolo-[2,3-b:5,4-c′]-dipyridine] | –
– | 1 to 100 nM | 100 to 1000 nM | 1 to 100 nM | 1 to 100 nM | 1000 to 5000 nM | CCN(CC)CCCn1cc(-c2cnc3[nH]c4cnc(-c5cccnc5)cc4c3c2)cn1 [Example 127, N,N-diethyl-3-{4-[6-(pyrid-3-yl)-9H-pyrrolo-[2,3-b:5,4-c′]-dipyrid-3-yl]-1H-pyrazol-1-yl}-propan-l-amine] | 1 to 100 nM
1 to 100 nM | – | – | 1 to 100 nM | – | – | CCN1CCCC1Cn1cc(-c2cnc3[nH]c4cnc(-c5cccnc5)cc4c3c2)cn1 (stereo not shown) [Example 128, 3-{1-[(1-ethylpyrrolidin-2-yl)methyl]-1H-pyrazol-4-yl}-6-(pyrid-3-yl)-9H-pyrrolo[2,3-b:5,4-c′]dipyridine] | 1 to 100 nM
– | 1 to 100 nM | 100 to 1000 nM | 100 to 1000 nM | 1 to 100 nM | 1000 to 5000 nM | COc1cnc2[nH]c3cnc(-c4cnn(C)c4)cc3c2c1 [Example 163, 3-methoxy-6-(1-methyl-1H-pyrazol-4-yl)-9H-pyrrolo[2,3-b:5,4-c′]dipyridine] | 100 to 1000 nM
– | 100 to 1000 nM | > 5000 nM | – | 100 to 1000 nM | > 5000 nM | COc1cnc2[nH]c3cnc(-c4cnn(CC(=O)NCCN(C)C)c4)cc3c2c1 [Example 165, N-[2-(dimethylamino)ethyl]-2-[4-(3-methoxy-9H-pyrrolo[2,3-b:5,4-c′]dipyrid-6-yl)-1H-pyrazol-1-yl]acetamide] | –
– | 100 to 1000 nM | 1000 to 5000 nM | – | 100 to 1000 nM | > 5000 nM | COc1cnc2[nH]c3cnc(-c4cnn(CCCCCNC(=O)OC(C)(C)C)c4)cc3c2c1 [Example 167, 2-methyl-2-propyl {5-[4-(3-methoxy-9H-pyrrolo[2,3-b:5,4-c′]dipyrid-6-yl)-1H-pyrazol-1-yl]pentyl}carbamate] | –
